Assay results as given in US20250185666A1, “Root-Targeted Delivery of Agrochemicals using Natural Microbial Carriers” (priority 2023, published 2025).
Where “and” joins values, the source holds several entries; their conditions need not be identical. Equal values may be shown once. Marks after values point to notes of the source that are not given here.

Tests used:
UC-1 cultures = assay: Screen of candidate formulations for operational toxicity to UC-1 cultures; conditions: concentrated formulation
From the text: Finally, candidate formulations were screened for operational toxicity to UC-1 cultures (i.e., live protists in a concentrated formulation should remain viable and actively moving). […] Both agrochemicals were used in their like-commercial formulations, which is a proprietary blend containing biocides and other ingredients needed to keep the agrochemical suspended and maintain performance.

Spodoptera frugiperda = assay: Maize leaf fall armyworm damage assay after seed treatment (feeding damage and FAW mortality); assay type: in vivo; set-up: Regression for feeding damage by leaf segment, Leaf 3 Middle / Regression for feeding damage by leaf segment, Leaf 3 Tip / Regression for feeding damage by leaf segment, Leaf 4 Middle / Regression for feeding damage by leaf segment, Leaf 4 Tip / Regression for feeding damage by leaf segment, Leaf 5 Middle / Regression for feeding damage by leaf segment, Leaf 5 Tip: unit not given here; conditions: for Regression for feeding damage by leaf segment, Leaf 3 Middle / Regression for feeding damage by leaf segment, Leaf 3 Tip / Regression for feeding damage by leaf segment, Leaf 4 Middle / Regression for feeding damage by leaf segment, Leaf 4 Tip / Regression for feeding damage by leaf segment, Leaf 5 Middle / Regression for feeding damage by leaf segment, Leaf 5 Tip: coefficient vs Baseline; for Regression for FAW mortality rate (coefficient) / Regression for overall feeding damage (coefficient): vs Baseline, controls for experimental run and tray location; for Regression for FAW mortality rate (coefficient): across six leaf segments per plant; for Regression for overall feeding damage (coefficient): averaged across six leaf segments per plant
Procedure: An experiment was designed to measure any systemic effects of soil protists in the presence and absence of (agrochemical) insecticide on pest damage resistance for plants grown from seeds. The experiments consisted of two stages: the growth stage and the pest stage. In the growth stage, maize seeds were treated individually with one of six mixtures containing bacteria, protists, and or/agrochemicals. All treatments included heat-killed bacteria, the food source for protists (protozoa). Additional potential components of each treatment were one of two agrochemicals, or soil protists, or one of two agrochemicals plus soil protists (Table 1). Treated seeds were germinated and grown in soil-filled pots in a greenhouse. Plants were grown in surplus quantities and down-selected to 48 representative plants per treatment for each experimental run (Table 2).
In the pest stage, three individual leaves were harvested from each plant, then the Tip and Middle segments of said leaves were collected. Each of the six leaf segments from the plant were placed in individual tray wells and challenged by a single insect larva, as explained further below.
Formulations for seed treatments (Table 1) were prepared in Page's Saline 24 h prior to inoculation and held at 23° C. in darkness. Prior to application, each formulation was vortexed for 30 sec then a small aliquot (50 μL) was added directly on top of each exposed seed during planting. Based on our prior experience, this small-volume-aliquot performs similarly to more conventionally formulated seed coatings, enabling early-stage screening of experimental formulations that are available only in limited quantities.
For each experimental run, 240 pots (10-cm, TLC Square Form Pots, HC Companies) were first filled with dry, steam pasteurized screened field soil (Kalamazoo, Michigan; Coloma loamy sand). The soil was misted with water with an automated system to reach field capacity in the Corteva Agriscience greenhouse located in Indianapolis, IN for at least 4 d prior to planting. Next, 3.8 cm deep, 2 cm wide holes were created in the center of each soil-filled pots, and a single seed was placed tip cap side down 3.8 cm below the soil surface. Each seed was immediately inoculated with a seed treatment (described above, n=60 per treatment). Treated pots were then randomized in the greenhouse to reduce systematic error (FIG. 1A). The greenhouse averaged 23° C. (maximum of 30° C. day and minimum of 19° C. at night). The plants received 100 mL water from the automated system, split over 49 passes, during the first week after planting, and 200 mL water split over 98 passes during the second week after planting.
Leaf segments were harvested on 48 representative plants selected from the 60 pots per treatment (FIG. 1A). Trays were filled in a semi-random fashion with less optimal plants at the end of tray 3 and the most underdeveloped plants being discarded. Plants were numbered as they were selected during the Leaf 3 harvest, and tracked through the harvest of Leaves 4 and 5 for robustness. Maize leaves are labelled according to the order they sprout. Maize was allowed to grow for 10 d before harvesting Leaf 3 and left for another 4 d (14 d total) before harvesting Leave 4, 5 (FIG. 1B). Leaves were segmented with the distal 3.8 cm labelled as Tip. Leaf Middle segments were harvested as a 3.8-cm segment from the middle of the leaf. For smaller leaves (such as the earlier-harvested Leaf 3), the Middle abutted the Tip. For larger leaves (4th and 5th), any section between Tip and Middle segments was discarded. For agrochemicals which translocate, such as those tested here, the agrochemical accumulates in the leaf Tips. By testing both leaf Tip and Middle, the relative amount of agrochemical moved by phloem or xylem transport since the leaf sprouted can be measured (Tip) along with the agrochemical in the process of transportation during harvest (Middle). […]

[1] = Transport of 14C-labeled Chlorantraniliprole in maize (autoradiography, combustion analysis); conditions: maize (Zea mays L.), in vivo, 7 d
Procedure: A scaled-up version of the μ-rhizoslide was developed to work with maize. First, ^14C-labeled agrochemical was dissolved in acetone, spiked onto the wall of a glass sample vial, and the acetone evaporated. Un-radiolabeled agrochemical formulation was then added to the vial and sonicated for 20 min to distribute the ^14C-labeled material into the formulation. The formulation was then mixed with Page's Saline containing heat-killed E. coli, or with Page's Saline containing both protists and heat-killed E. coli to prepare the seed treatments formulation. As described before, the ^14C-labeled seed treatment formulations were allowed to rest in darkness for 24 h prior to application. Final radioactivity was measured at approximately 300,000 DPM per individual seed treatment. Pots were filled, and seeds planted and treated as described above. Plants were harvested at 1 week due to restricted space for work with radiolabeled material. […]
A similar experiment was conducted using ^14C-labeled Chlorantraniliprole, differing in the allocated growth period (7 vs 14 d), watering schedule (due to limitations of radioactive containment), and pot (3D printed device optimized for radio-detection vs traditional 4.5″ pot). Radioactivity in both the plant material and the soil were measured before combustion analysis was conducted on the plant material.

[2] = Table 6 (Chlorantraniliprole data set)

Compound: CNC(=O)c1cc(Cl)cc(C)c1NC(=O)c1cc(Br)nn1-c1ncccc1Cl [Chlorantraniliprole, chlorantraniliprole]
- Operational toxicity to UC-1 cultures (live protists remain viable and actively moving) (UC-1 cultures): satisfied all criteria
- Regression for feeding damage by leaf segment, Leaf 3 Middle (Spodoptera frugiperda; [2]): −36.100***
- Regression for feeding damage by leaf segment, Leaf 3 Tip (Spodoptera frugiperda; [2]): −65.841***
- Regression for feeding damage by leaf segment, Leaf 4 Middle (Spodoptera frugiperda; [2]): −6.424**
- Regression for feeding damage by leaf segment, Leaf 4 Tip (Spodoptera frugiperda; [2]): −46.026***
- Regression for feeding damage by leaf segment, Leaf 5 Middle (Spodoptera frugiperda; [2]): −2.566
- Regression for feeding damage by leaf segment, Leaf 5 Tip (Spodoptera frugiperda; [2]): −34.783***
- Reduction of feeding damage from Baseline, Leaf 4 Middle (Spodoptera frugiperda; in vivo): 7.2 percentage points
- Reduction of feeding damage from Baseline, Leaf 5 Middle (Spodoptera frugiperda; in vivo): 3.5 percentage points
- Feeding damage, Leaf 4 Middle (Spodoptera frugiperda; leaf harvested 14 d): 86% and 86.4%
- Feeding damage, Leaf 4 Tip (Spodoptera frugiperda; leaf harvested 14 d): 49%
- Feeding damage, Leaf 5 Middle (Spodoptera frugiperda; leaf harvested 14 d): 88%
- Regression for FAW mortality rate (coefficient) (Spodoptera frugiperda): 20.341***
- Regression for overall feeding damage (coefficient) (Spodoptera frugiperda): −31.836***
- Distribution of 14C-labeled Chlorantraniliprole in plant parts [1]: higher concentration of Chlorantraniliprole in earlier parts (stem, Leaf 1)

Compound: Spinosad
- Regression for feeding damage by leaf segment, Leaf 3 Middle (Spodoptera frugiperda; Table 7 (Spinosad data set)): −45.225***
- Regression for feeding damage by leaf segment, Leaf 3 Tip (Spodoptera frugiperda; Table 7 (Spinosad data set)): −59.140***
- Regression for feeding damage by leaf segment, Leaf 4 Middle (Spodoptera frugiperda; Table 7 (Spinosad data set)): −40.880***
- Regression for feeding damage by leaf segment, Leaf 4 Tip (Spodoptera frugiperda; Table 7 (Spinosad data set)): −59.365***
- Regression for feeding damage by leaf segment, Leaf 5 Middle (Spodoptera frugiperda; Table 7 (Spinosad data set)): −10.627***
- Regression for feeding damage by leaf segment, Leaf 5 Tip (Spodoptera frugiperda; Table 7 (Spinosad data set)): −29.736***
- Reduction of feeding damage from Baseline, Leaf 4 Tip (Spodoptera frugiperda; in vivo): 58.5 percentage points
- Reduction of feeding damage from Baseline, Leaf 5 Middle (Spodoptera frugiperda; in vivo): 9.5 percentage points
- Feeding damage, Leaf 4 Tip (Spodoptera frugiperda; leaf harvested 14 d): ~35.0%
- Feeding damage, Leaf 5 Middle (Spodoptera frugiperda; leaf harvested 14 d): ~82.2%
- Regression for FAW mortality rate (coefficient) (Spodoptera frugiperda): 33.342***
- Regression for overall feeding damage (coefficient) (Spodoptera frugiperda): −39.981***
